Tested on: HUVEC/MSC spheroids viability
Assay: Human HUVEC/MSC cell line growth inhibition [KRAS2];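 on viability, T/C: percent of DMSO vehicle control luminescence so 100% = untreated viability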
Conditions: for IC50: curve of first compound; for viability, T/C: stronger effect = lower value
Procedure, shortened: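 The concentration series started at or near clinical Cmax (10 microM if not known) and fell in half-log increments, alone or in combination. Cells were stromal-only spheroids of pooled-donor HUVEC and hMSC (passage </=5), with different drug plates and layout from the tumor spheroid screens.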

[1] = second compound 0.00949 µM, first compound 0.0316 µM
[2] = second compound 0.00949 µM, first compound 0.1 µM
[3] = second compound 0.03 µM, first compound 0.0316 µM
[4] = second compound 0.03 µM, first compound 0.1 µM
[5] = second compound 0.0949 µM, first compound 0.0316 µM
[6] = second compound 0.0949 µM, first compound 0.1 µM
[7] = second compound 0.3 µM, first compound 0.0316 µM
[8] = second compound 0.3 µM, first compound 0.1 µM
[9] = second compound 0.949 µM, first compound 0.0316 µM
[10] = second compound 0.949 µM, first compound 0.1 µM
[11] = second compound 3 µM, first compound 0.0316 µM
[12] = second compound 3 µM, first compound 0.1 µM

Compound `CN(C)C/C=C/C(=O)Nc1cc2c(Nc3ccc(F)c(Cl)c3)ncnc2cc1O[C@H]1CCOC1` + C=CC(=O)N1CCN(c2nc(OCC3CCCN3C)nc3c2CCN(c2cccc4cccc(C)c24)C3)CC1CC#N has an IC50 (second compound 0.00949 µM) of over 0.1 µM, an IC50 (second compound 0.03 µM) of over 0.1 µM and an IC50 (second compound 0.0949 µM) of over 0.1 µM. For the same compound, the IC50 (second compound 0.3 µM) was over 0.1 µM, the IC50 (second compound 0.949 µM) was over 0.1 µM and the IC50 (second compound 3 µM) was over 0.1 µM. The viability, T/C (second compound 0.00949 µM, first compound 0.000316 µM) was 79.2%, the viability, T/C (second compound 0.00949 µM, first compound 0.001 µM) was 95.1% and the viability, T/C (second compound 0.00949 µM, first compound 0.00316 µM) was 88.5%. For the same compound, the viability, T/C (second compound 0.00949 µM, first compound 0.01 µM) was 82.1%, the viability, T/C [1] was 67.7% and the viability, T/C [2] was 74.4%. For the same compound, the viability, T/C (second compound 0.03 µM, first compound 0.000316 µM) was 92.5%, the viability, T/C (second compound 0.03 µM, first compound 0.001 µM) was 92.5% and the viability, T/C (second compound 0.03 µM, first compound 0.00316 µM) was 90.8%. It also gave a viability, T/C (second compound 0.03 µM, first compound 0.01 µM) of 78.8%, a viability, T/C [3] of 88.4% and a viability, T/C [4] of 99.2%. It also gave a viability, T/C (second compound 0.0949 µM, first compound 0.000316 µM) of 85.7%, a viability, T/C (second compound 0.0949 µM, first compound 0.001 µM) of 84.9% and a viability, T/C (second compound 0.0949 µM, first compound 0.00316 µM) of 82.3%. The viability, T/C (second compound 0.0949 µM, first compound 0.01 µM) was 79.8%, the viability, T/C [5] was 82.9% and the viability, T/C [6] was 95.2%. For the same compound, the viability, T/C (second compound 0.3 µM, first compound 0.000316 µM) was 82.6%, the viability, T/C (second compound 0.3 µM, first compound 0.001 µM) was 84.5% and the viability, T/C (second compound 0.3 µM, first compound 0.00316 µM) was 76.1%. It also gave a viability, T/C (second compound 0.3 µM, first compound 0.01 µM) of 73.4%, a viability, T/C [7] of 80.4% and a viability, T/C [8] of 63%. It also gave a viability, T/C (second compound 0.949 µM, first compound 0.000316 µM) of 63.9%, a viability, T/C (second compound 0.949 µM, first compound 0.001 µM) of 69.8% and a viability, T/C (second compound 0.949 µM, first compound 0.00316 µM) of 72.3%. For the same compound, the viability, T/C (second compound 0.949 µM, first compound 0.01 µM) was 80%, the viability, T/C [9] was 72.5% and the viability, T/C [10] was 73%. The viability, T/C (second compound 3 µM, first compound 0.000316 µM) was 82.1%, the viability, T/C (second compound 3 µM, first compound 0.001 µM) was 90.3% and the viability, T/C (second compound 3 µM, first compound 0.00316 µM) was 82%. For the same compound, the viability, T/C (second compound 3 µM, first compound 0.01 µM) was 73.8%, the viability, T/C [11] was 79% and the viability, T/C [12] was 93.7%.

`O=C(c1cc(Cc2n[nH]c(=O)c3ccccc23)ccc1F)N1CCN(C(=O)C2CC2)CC1` + C=CC(=O)N1CCN(c2nc(OCC3CCCN3C)nc3c2CCN(c2cccc4cccc(C)c24)C3)CC1CC#N gave an IC50 (second compound 0.00949 µM) of over 10 µM, an IC50 (second compound 0.03 µM) of over 10 µM and an IC50 (second compound 0.0949 µM) of over 10 µM. It also gave an IC50 (second compound 0.3 µM) of over 10 µM, an IC50 (second compound 0.949 µM) of over 10 µM and an IC50 (second compound 3 µM) of over 10 µM. The viability, T/C [1] was 80.8%, the viability, T/C [2] was 101% and the viability, T/C (second compound 0.00949 µM, first compound 0.316 µM) was 89.4%. The viability, T/C (second compound 0.00949 µM, first compound 1 µM) was 82.3%, the viability, T/C (second compound 0.00949 µM, first compound 3.16 µM) was 80.9% and the viability, T/C (second compound 0.00949 µM, first compound 10 µM) was 112%. For the same compound, the viability, T/C [3] was 78.2%, the viability, T/C [4] was 96.2% and the viability, T/C (second compound 0.03 µM, first compound 0.316 µM) was 98.7%. For the same compound, the viability, T/C (second compound 0.03 µM, first compound 1 µM) was 81.2%, the viability, T/C (second compound 0.03 µM, first compound 3.16 µM) was 103% and the viability, T/C (second compound 0.03 µM, first compound 10 µM) was 83.7%. For the same compound, the viability, T/C [5] was 91.8%, the viability, T/C [6] was 87.8% and the viability, T/C (second compound 0.0949 µM, first compound 0.316 µM) was 77.2%. It also gave a viability, T/C (second compound 0.0949 µM, first compound 1 µM) of 101%, a viability, T/C (second compound 0.0949 µM, first compound 3.16 µM) of 88.4% and a viability, T/C (second compound 0.0949 µM, first compound 10 µM) of 100%. The viability, T/C [7] was 71%, the viability, T/C [8] was 91.9% and the viability, T/C (second compound 0.3 µM, first compound 0.316 µM) was 86.1%. The viability, T/C (second compound 0.3 µM, first compound 1 µM) was 73.7%, the viability, T/C (second compound 0.3 µM, first compound 3.16 µM) was 82.8% and the viability, T/C (second compound 0.3 µM, first compound 10 µM) was 81.8%. It also gave a viability, T/C [9] of 68.4%, a viability, T/C [10] of 84.9% and a viability, T/C (second compound 0.949 µM, first compound 0.316 µM) of 84.1%. For the same compound, the viability, T/C (second compound 0.949 µM, first compound 1 µM) was 88.8%, the viability, T/C (second compound 0.949 µM, first compound 3.16 µM) was 89.8% and the viability, T/C (second compound 0.949 µM, first compound 10 µM) was 85.2%. For the same compound, the viability, T/C [11] was 91.5%, the viability, T/C [12] was 79.5% and the viability, T/C (second compound 3 µM, first compound 0.316 µM) was 111%. For the same compound, the viability, T/C (second compound 3 µM, first compound 1 µM) was 102%, the viability, T/C (second compound 3 µM, first compound 3.16 µM) was 107% and the viability, T/C (second compound 3 µM, first compound 10 µM) was 89.7%.

Source: PubChem BioAssay AID2060912 (Molecular Pharmacology Branch, DTP, NCI, 2025)
